Laboratory results taken from patent US10961198B2, “Farnesoid X receptor agonists and uses thereof” (Metacrine, Inc., priority 2017, dated 2021).
pEC50: −log10 of the molar value.

The compounds below were run against hFXR (Homo sapiens (Human), UniProt Q96RI1) (assay: In Vitro FXR Assay (TK)). Settings: CV-1 cells transfected with hFXR, hRXR, TK-ECRE-luc and pCMX-YFP; incubated 18 hrs; luminescence; maximum efficacy <25% of the Fexarmine control classified as '+'.
Assay type: cell-based
Description: Example B-1: In Vitro FXR Assay (TK)
CV-1 cells were seeded at a density of 2,000,000 cells in a T175 flask with DMEM+10% charcoal double-stripped FBS and incubated at 37° C. in 5% CO2 for 18 h (O/N).
After 18 h of incubation, the medium in the T175 flask was changed with fresh DMEM+10% charcoal super-stripped serum. In a polypropylene tube, 2500 μL OptiMEM (Life Technologies, Cat #31985-062) was combined with expression plasmids for hFXR, hRXR, TK-ECRE-luc and pCMX-YFP. The tube was then briefly vortexed and incubated at room temperature for 5 minutes. Transfection reagent (X-tremeGENE HP from Roche, Cat #06 366 236 001) was added to the OptiMEM/plasmid mixture vortexed and incubated at room temperature for 20 minutes. Following incubation, the transfection reagent/DNA mixture complex was added to cells in the T175 flask and the cells were incubated at 37° C. in 5% CO2 for 18 h (O/N).
Compounds were serially diluted in DMSO and added to transfected CV-1 cells. The cells were then incubated for 18 hrs. The next day cells were lysed and examined for luminescence.

hFXR, sequence (Q96RI1 whole entry): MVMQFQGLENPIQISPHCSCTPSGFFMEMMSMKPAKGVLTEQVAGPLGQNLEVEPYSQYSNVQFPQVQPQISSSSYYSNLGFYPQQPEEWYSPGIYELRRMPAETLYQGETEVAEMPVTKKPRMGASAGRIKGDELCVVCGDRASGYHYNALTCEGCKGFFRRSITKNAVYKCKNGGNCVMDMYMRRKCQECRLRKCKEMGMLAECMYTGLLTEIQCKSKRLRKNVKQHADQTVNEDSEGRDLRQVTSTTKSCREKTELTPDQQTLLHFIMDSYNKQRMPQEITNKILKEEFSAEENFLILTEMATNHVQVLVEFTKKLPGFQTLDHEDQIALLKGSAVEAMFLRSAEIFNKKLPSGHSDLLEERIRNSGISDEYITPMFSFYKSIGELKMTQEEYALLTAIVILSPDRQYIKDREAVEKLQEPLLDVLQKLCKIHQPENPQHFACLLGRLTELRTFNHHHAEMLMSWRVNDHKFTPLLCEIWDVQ
hFXR, sequence (P19793 whole entry partner): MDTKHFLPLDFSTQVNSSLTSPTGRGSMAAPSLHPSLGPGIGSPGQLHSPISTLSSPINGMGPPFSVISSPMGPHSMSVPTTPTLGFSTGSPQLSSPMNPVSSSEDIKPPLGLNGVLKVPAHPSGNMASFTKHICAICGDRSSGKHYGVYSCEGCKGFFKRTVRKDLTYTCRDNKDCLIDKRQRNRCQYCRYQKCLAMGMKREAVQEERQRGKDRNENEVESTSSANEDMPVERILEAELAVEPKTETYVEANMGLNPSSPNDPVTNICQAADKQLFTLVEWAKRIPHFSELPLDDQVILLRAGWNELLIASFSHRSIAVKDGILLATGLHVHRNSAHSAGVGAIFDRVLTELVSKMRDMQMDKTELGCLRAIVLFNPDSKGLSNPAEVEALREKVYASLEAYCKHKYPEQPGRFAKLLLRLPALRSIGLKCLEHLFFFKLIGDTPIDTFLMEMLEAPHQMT

| pEC50 | Compound |
| --- | --- |
| ≥ 6.60 | COc1ccc([C@H]2CC[C@H](CN(c3cc(-c4cnn(C(C)C)c4)ccn3)C(=O)[C@H]3CC[C@H](O)CC3)CC2)nc1C [Compound 5.19, trans-4-Hydroxy-N-(4-(1-isopropyl-1H-pyrazol-4-yl)pyridin-2-yl)-N-((trans-4-(5-methoxy-6-methylpyridin-2-yl)cyclohexyl)methyl)cyclohexanecarboxamide] |
| 6.00 to 6.60 | COc1ccc([C@H]2CC[C@H](CN(c3cc(-c4cnn(C(C)C)c4)ccn3)C(=O)[C@H]3CC[C@H](O)CC3)CC2)nc1C#N [Compound 5.20, trans-N-((trans-4-(6-Cyano-5-methoxypyridin-2-yl)cyclohexyl)methyl)-4-hydroxy-N-(4-(1-isopropyl-1H-pyrazol-4-yl)pyridin-2-yl)cyclohexanecarboxamide] |
| ≤ 6.00 | Cn1ccc2cc([C@H]3CC[C@H](CN(c4cccc(-c5cnn(C6CC6)c5)c4)C(=O)[C@H]4CC[C@H](O)CC4)CC3)ncc21 [Compound 5.21, trans-N-(3-(1-Cyclopropyl-1H-pyrazol-4-yl)phenyl)-4-hydroxy-N-((trans-4-(1-methyl-1H-pyrrolo[2,3-c]pyridin-5-yl)cyclohexyl)methyl)cyclohexanecarboxamide] |
| 6.00 to 6.60 | COc1ccc([C@H]2CC[C@H](CN(c3cc(-c4cnn(C5CC5)c4)ccn3)C(=O)[C@H]3CC[C@H](O)CC3)CC2)nc1C#N [Compound 5.22, trans-N-((trans-4-(6-Cyano-5-methoxypyridin-2-yl)cyclohexyl)methyl)-N-(4-(1-cyclopropyl-1H-pyrazol-4-yl)pyridin-2-yl)-4-hydroxycyclohexanecarboxamide] |
| ≥ 6.60 | COc1ccc([C@H]2CC[C@H](CN(c3cccc(-c4cnn(C(C)C)c4)c3)C(=O)[C@H]3CC[C@H](O)CC3)CC2)nc1C#N [Compound 5.23, trans-N-((trans-4-(6-Cyano-5-methoxypyridin-2-yl)cyclohexyl)methyl)-4-hydroxy-N-(3-(1-isopropyl-1H-pyrazol-4-yl)phenyl)cyclohexanecarboxamide] |
| ≥ 6.60 | COc1ccc([C@H]2CC[C@H](CN(C(=O)C3CCCCC3)c3cccc(-c4cnn(C5CC5)c4)c3)CC2)cc1C [Compound 5.24, N-(3-(1-Cyclopropyl-1H-pyrazol-4-yl)phenyl)-N-((trans-4-(4-methoxy-3-methylphenyl)cyclohexyl)methyl)cyclohexanecarboxamide] |
| ≥ 6.60 | COc1ccc(C2CCC(CN(c3cccc(-c4cnn(C5CC5)c4)c3)C(=O)[C@H]3CC[C@@H](O)CC3)CC2)cc1C (stereo partly drawn) [Compound 5.25, cis-N-(3-(1-Cyclopropyl-1H-pyrazol-4-yl)phenyl)-4-hydroxy-N-((4-(4-methoxy-3-methylphenyl)cyclohexyl)methyl)cyclohexanecarboxamide] |
| 6.00 to 6.60 | COc1ccc([C@H]2CC[C@H](CN(c3cc(-c4cnn(C5CC5)c4)cc(C)n3)C(=O)[C@H]3CC[C@H](O)CC3)CC2)cc1C [Compound 5.26, trans-N-(4-(1-cyclopropyl-1H-pyrazol-4-yl)-6-methylpyridin-2-yl)-4-hydroxy-N-((trans-4-(4-methoxy-3-methylphenyl)cyclohexyl)methyl)cyclohexanecarboxamide] |
| ≥ 6.60 | COc1ccc([C@H]2CC[C@H](CN(c3cccc(-c4cnn(C(C)C)c4)c3)C(=O)[C@H]3CC[C@](C)(O)CC3)CC2)cc1C [Compound 5.27, (1r,4r)-4-Hydroxy-N-(3-(1-isopropyl-1H-pyrazol-4-yl)phenyl)-N-((trans-4-(4-methoxy-3-methylphenyl)cyclohexyl)methyl)-4-methylcyclohexanecarboxamide] |
| ≥ 6.60 | COc1ccc([C@H]2CC[C@H](CN(c3cccc(-c4cnn(C(C)C)c4)c3)C(=O)[C@H]3CC[C@@](C)(O)CC3)CC2)cc1C [Compound 5.28, (1s, 4s)-4-Hydroxy-N-(3-(1-isopropyl-1H-pyrazol-4-yl)phenyl)-N-((trans-4-(4-methoxy-3-methylphenyl)cyclohexyl)methyl)-4-methylcyclohexanecarboxamide] |
| ≥ 6.60 | COc1ncc([C@H]2CC[C@H](CN(c3cc(-c4cnn(C(C)C)c4)ccn3)C(=O)[C@H]3CC[C@H](O)CC3)CC2)cc1C [Compound 5.29, trans-4-Hydroxy-N-(4-(1-Isopropyl-1H-pyrazol-4-yl)pyridin-2-yl)-N-((trans-4-(6-methoxy-5-methylpyridin-3-yl)cyclohexyl)methyl)cyclohexanecarboxamide] |
| ≥ 6.60 | COc1ncc([C@H]2CC[C@H](CN(c3cc(-c4cnn(C(C)C)c4)ccn3)C(=O)[C@H]3CC[C@H](O)CC3)CC2)cc1Cl [Compound 5.30, trans-N-((trans-4-(5-Chloro-6-methoxypyridin-3-yl)cyclohexyl)methyl)-4-hydroxy-N-(4-(1-isopropyl-1H-pyrazol-4-yl)pyridin-2-yl)cyclohexanecarboxamide] |
| ≥ 6.60 | COc1ccc(C23CCC(CN(c4cccc(-c5cnn(C6CC6)c5)c4)C(=O)[C@H]4CC[C@H](O)CC4)(CC2)CC3)cc1C [Compound 6, trans-N-(3-(1-Cyclopropyl-1H-pyrazol-4-yl)phenyl)-4-hydroxy-N-((4-(4-methoxy-3-methylphenyl)bicyclo[2.2.2]octan-1-yl)methyl)cyclohexanecarboxamide] |
| ≥ 6.60 | CN(C)c1ccc(C23CCC(CN(c4cccc(-c5cnn(C6CC6)c5)c4)C(=O)[C@H]4CC[C@H](O)CC4)(CC2)CC3)cn1 [Compound 6.01, trans-N-(3-(1-Cyclopropyl-1H-pyrazol-4-yl)phenyl)-N-((4-(6-(dimethylamino)pyridin-3-yl)bicyclo[2.2.2]octan-1-yl)methyl)-4-hydroxycyclohexanecarboxamide] |
| ≥ 6.60 | COc1ccc(C23CCC(CN(c4cccc(-c5cnn(C(C)C)c5)c4)C(=O)[C@H]4CC[C@H](O)CC4)(CC2)CC3)cc1C [Compound 6.02, trans-4-Hydroxy-N-(3-(1-isopropyl-1H-pyrazol-4-yl)phenyl)-N-((4-(4-methoxy-3-methylphenyl)bicyclo[2.2.2]octan-1-yl)methyl)cyclohexanecarboxamide] |
| ≤ 6.00 | COc1ccc([C@H]2CC[C@H](CN(c3cccc(-c4cnn(C(C)C)c4)c3)C(=O)[C@H]3CC[C@H](N)CC3)CC2)cc1C [Compound 7, trans-4-Amino-N-(3-(1-isopropyl-1H-pyrazol-4-yl)phenyl)-N-((trans-4-(4-methoxy-3-methylphenyl)cyclohexyl)methyl)cyclohexanecarboxamide] |
| 6.00 to 6.60 | COc1ccc(C23CCC(CN(c4cccc(-c5cnn(C6CC6)c5)c4)C(=O)[C@H]4CC[C@H](N)CC4)(CC2)CC3)cc1C [Compound 7.01, trans-4-Amino-N-(3-(1-cyclopropyl-1H-pyrazol-4-yl)phenyl)-N-((4-(4-methoxy-3-methylphenyl)bicyclo[2.2.2]octan-1-yl)methyl)cyclohexanecarboxamide] |
| 6.00 to 6.60 | Cc1cc([C@H]2CC[C@H](CN(c3cccc(-c4cnn(C5CC5)c4)c3)C(=O)[C@H]3CC[C@H](O)CC3)CC2)ccc1O [Compound 8, trans-N-(3-(1-Cyclopropyl-1H-pyrazol-4-yl)phenyl)-4-hydroxy-N-((trans-4-(4-hydroxy-3-methylphenyl)cyclohexyl)methyl)cyclohexanecarboxamide] |
